Read-outs that look alike come from different tables or passages of the source. Values belong to the compound of their own block, whether it stands above or below them.
Assays:
[1] = system: lipid droplets in wild type MEF cells; test: Reduction of OA-induced lipid droplets in wild type MEF cells (BODIPY 493/503 staining); type: cell-based, mouse; settings: MEF, unconjugated compound 5 μM
Protocol: (5) OA-BSA stock solution was prepared into OA-BSA working solution (50× final concentration, 200 μM), and 40 μl of OA-BSA working solution was added to each well to induce lipid droplets. For the non-OA induction group, 40 μl of 10% BSA solution was added to the control well, and the amount of BSA was the same as that of the experimental group.
Compounds were formulated into DMSO stock solutions. Stock compounds were diluted with DMSO into the indicated concentrations of working solutions prior to use in the treatment of cells. After induction of the lipid droplets with OA for the indicated time, the test compounds were added to the cells respectively. Control wells were replaced with the equal volume of DMSO. Unless otherwise stated, the compounds were diluted into 10× solutions using the culture medium and added to the culture medium for 24 hours of incubation. Cells were treated with compounds in a 37° C. incubator with 5% CO2.
(3) The original medium in the multi-well plates was removed, washed and the cells was fixed, 1 ml of the BODIPY solution prepared in (1) was added to each well, and stained for 15 minutes. The staining solution was aspirated and washed with 1×PBS.
(5) The coverslips laid in the multi-well plates were removed, and imaged with the Zeiss 880 confocal microscope after mounted, and analyzed the size and number of lipid droplets with ImageJ.
Wild type MEF cells were cultured in a DMEM culture medium containing 10% FBS. Cells were plated according to the method as described above (12 well plate was plated with aseptic treated slides). When cells grew to a confluence of 60-70%, lipid droplets were induced with OA for 30 h according to the method as described above.
At the time point of 6th hour after initiation of induction, the cells were treated (treated for 24 hours) with Compound 1A or Compound 2A (compound concentrations were 50 μM, 15.8 μM, 5 μM, 1.58 μM, 0.5 μM, 0.158 μM) according to the method as described above.

[2] = system: lipid droplets in SH-SY5Y cells; test: Reduction of OA-induced lipid droplets in SH-SY5Y cells; type: cell-based, human; settings: unconjugated compound 5 μM
Description: The reduction of lipid droplets in SH-SY5Y cells by Compound 1A and Compound 2A was detected by a method that was similar to Example 2, and the result was shown in FIG. 18.
The effects of unconjugated LC3 binding Compound A1, A5 and unconjugated lipid droplet probe ORBB […] respectively on lipid droplets in SH-SY5Y cells (FIG. 20A) and MEF cells (FIG. 20B) were detected by a method similar to Example 2.

[3] = system: lipid droplets in 3T3-L1 fat precursor cell differentiated fat cells; test: Lipid droplets in 3T3-L1 fat precursor cell differentiated fat cells; type: cell-based, mouse; settings: 3T3-L1 differentiated fat cells, 5 μM, 24 h
[4] = system: lipid droplets in human normal liver cell line QSG7701; test: Endogenous lipid droplets in human normal liver cell line QSG7701; type: cell-based; settings: QSG7701, no induction, 5 μM, 24 h
Protocol: 10% FBS+90% RPMI 1640 culture medium was used for cultivation, cell incubator culture condition of 37° C. and 5% CO2 was used. Cells were plated as 50 thousands/well (12 well plate was plated with aseptic treated slides). When cells grew to a confluence of 80-90%, the compound (Compound 1A or Compound 2A, at a concentration of 5 μM) was added for treatment, and LC3 binding Compound A1, A5, lipid droplet probe Sudan IV as well as DMSO acted as a control. […]. In the compounds of present disclosure, LC3 binding moiety was covalently linked with lipid droplet binding moiety, and thus could achieve the effect of reducing liver cell endogenous lipid droplet.

db/db mice = test: Effect of the compound on db/db mouse; type: in vivo
Description: Experimental animals: nineteen-week-old db/db male mice (C57BL/6J-Lepr^db/Lepr^db) were obtained from Shanghai Model Organisms Co., Ltd., and acclimatized for at least 1 week before experiments. The mice had ad libitum access to standard chow and water.
Normal control: The C57BL/6 male mice fed on standard irradiated chow diet (Shuyishuer Inc. cat. no. D12450J) from Changzhou Shuyishuer Biotechnology Co., Ltd. (Shuyishuer Inc.) were used as the normal control.
Mice were randomly divided into 7 groups, wherein 8 mice in each group, and the mice in each group were subjected to intraperitoneal injection to administer: (1) only vehicle (no DMSO) group: 0% DMSO+39% PEG300 (Selleck, cat. no. S6704)+5% Tween-80 (Selleck, cat. no. S6702)+56% distilled water, (2) DMSO group: 1% DMSO+39% PEG300+5% Tween-80+55% H2O (DMSO vehicle), (3) C3 group: Compound 3A was in DMSO vehicle, (4) C4 group: Compound 4A in DMSO vehicle, (5) SIII group: Sudan III DMSO vehicle, (6) GW5074 group: Compound A1 in DMSO vehicle, (7) DP group: Compound A5 in DMSO vehicle. For groups (3)-(7), the compound (30 mg/kg, administration volume 150 μL) was administered through intraperitoneally injection for consecutive 2 weeks, and once a day. The food and water intake were measured with an analytical electronic balance.
Bodyweight was weighed every day.
If time permitted, tail vein blood (30-50 μL) was collected every 1-3 days.
24 hours after the time point of the last injection, end point maxillary surface blood sampling was performed on each mouse. All mice were Euthanized by cervical dislocation, and then tissue sample (e.g., liver samples) were obtained and stored in Eppendorf tubes at −80° C. for assay.
12 days after initiation of administration, each mouse was scanned by a minispec nuclear magnetic resonance (NMR) instrument (Bruker LF50 II “Minispec” body composition analyzer, Bruker Optics) that was designed for experimental animals, and based on the measurement of solid and liquid parts of the samples, the body fat and lean body weight were determined by this device.
Serum: Tail vein blood samples (30-50 μL) were left to coagulate in […] blood collection tubes (Jiangsu Kangjian Medical Products Co., Ltd., model KJ002) at room temperature without interference, and then centrifuged at 2,000×g for 10 minutes at 4° C. to remove the clot. Supernatant was collected to obtain the serum.
Liver: Liver samples were obtained as described in (2). 100 mg of liver tissue was homogenized in 0.9 mL of absolute alcohol under ice-cold conditions, and then centrifuged (2,500 r.p.m/min, 10 min). Supernatant was collected, and then stored at −80° C.
The kits were used according to the instruction from manufacturer (TAG: TG kit, cat. no. A110-1-1; TC: T-CHO kit, cat. no. A111-1. FFA: NEFA kit, cat. No. A042-2-1; they were all from Nanjing Jiancheng Bioengineering Institute). TAG, TC and FFA levels in serum and liver samples were determined.
According to the lipidomic method as described above, the contents of liver total lipid, glycerolipid, sterol lipid, neutral sphingolipid and polar lipid were analyzed. The log 2-fold change (log2 FC) and statistical significance (p-value) relative to the DMSO group were calculated.

LC3B = LC3B (Homo sapiens, UniProt Q9GZQ8); test: MST detection of affinity activity with LC3B; type: binding; parameters: His8 (with TEV site) (N); made in house; host or cells: Escherichia coli BL21(DE3)pLysS
Protocol: The recombinant GST-LC3B proteins were prepared and purified, dialyzed into 1×PBS, and then labelled with the red fluorophore with the protein labeling kit RED-NHS (Nanotemper, cat. no. L001).
The MST experiments were performed using the Monolith NT.115 instrument (NanoTemper Technologies). The reaction buffer contains 20 mM HEPES, pH 7.4, 150 mM NaCl, and the protein concentration was 500 nM. The MST data were collected under 40% infrared laser power and 20% light-emitting diode power. The data were analyzed by Nanotemper software.

[5] = system: autophagosome-lipid droplet colocalization in MEF cells; test: Colocalization of autophagosome and lipid droplets in mCherry-LC3B transfected MEF cells; type: cell-based, mouse; settings: 5 μM, 3 h, compared to DMSO control
Protocol: (1) In MEF cells, mCherry-LC3B was expressed by cDNA plasmid transfection.
(2) OA was added to the culture medium 30 hours after transfection to induce lipid droplets.
(3) Compounds were added to treat cells 6 hours after induction.
(4) 3 hours after compounds addition, cells were fixed and BODIPY stained.
(5) The coverslips laid in the multi-well plates were removed, and imaged with the Zeiss 880 confocal microscope after mounted to observe the aggregation of LC3 puncta around the lipid droplets.
In MEF cells, mCherry-LC3B was expressed by cDNA plasmid transfection. At 30th hour of overexpression, OA was added into cells for lipid droplet induction. 6 hours later, the compound was added for 3 hours' treatment, and then cells were subjected to immunostaining. […] Lipid droplets (green) were stained with BODIPY stain, and nucleus were indicated with DAPI stain. […] In FIG. 24, the colocalized autophagosome-lipid droplet was marked with circles.

[6] = MST, read-out: Kd, equilibrium dissociation constant between the LC3 binding compound and LC3B

SMILES: O=c1cc(-c2ccccc2)c2c(O)cc(O)cc2o1 [Compound A5, 5,7-dihydroxy-4-phenyl-2H-coumarin, reference compound]
lipid droplets (number and size) [1]: did not significantly decrease or become smaller
lipid droplets (number and size) [2]: did not significantly decrease or become smaller
amount/size of lipid droplets [3]: no significant effect
endogenous lipid droplets (amount) [4]: no significant effect
mice died in the experiment (db/db mice; 30 mg/kg ip, 8 mice per group): one mouse

Kd (LC3B; [6]): 0.672 µM
SMILES: COc1ccc(-c2cc(=O)oc3c(C)c(O)c(CN(C)C)cc23)cc1 [Compound A7]

Kd (LC3B; [6]): 21.3 ± 1.69 µM
SMILES: CC(C)(C)c1cc(NC(=O)Nc2ccc(-c3cn4c(n3)sc3cc(OCCN5CCOCC5)ccc34)cc2)no1 [Compound A12]

SMILES: OCCCCCCCCCCBr [Linker, 10-bromo-1-decanol, reference compound]
amount/size of lipid droplets [3]: no significant effect

Kd (LC3B; [6]): 3.98 ± 0.537 µM
SMILES: Nc1ncnc2c1c(-c1cccc(OCc3ccccc3)c1)cn2C1CC(CN2CCCC2)C1 (centres unmarked) [Compound A10]

Kd (LC3B; [6]): 5.19 ± 0.282 µM
SMILES: Cc1csc(-c2nnc(Nc3ccc(Oc4ncccc4-c4ccnc(N)n4)cc3)c3ccccc23)c1 [Compound A13]

Kd (LC3B; [6]): 2.78 ± 0.577 µM
SMILES: COCC(=O)NC/C=C/c1ccc2ncnc(Nc3ccc(Oc4ccc(C)cc4)c(C)c3)c2c1 [Compound A11]

interaction with LC3B (LC3B; MST): No interaction
SMILES: Cc1ccccc1/N=N/c1ccc(/N=N/c2c(O)ccc3ccccc23)c(C)c1 [Sudan IV, reference compound]
lipid droplets (number and size) [1]: did not significantly decrease or become smaller
lipid droplets (number and size) [2]: did not significantly decrease or become smaller
amount/size of lipid droplets [3]: no significant effect
ratio of colocalization of red and green aggregation point (autophagosome-lipid droplet) [5]: No such effect
endogenous lipid droplets (amount) [4]: no significant effect

Kd (LC3B; [6]): 3 µM
SMILES: O=C(O)c1cc2ccc(O)cc2oc1=O [Compound A4]

SMILES: Cc1ccc(C(=O)N(CCCN)[C@@H](c2nc3cc(Cl)ccc3c(=O)n2Cc2ccccc2)C(C)C)cc1 [Compound A8, ispinesib]
Kd (LC3B): 0.462 ± 0.11 µM

interaction with LC3B (LC3B; MST): No interaction
SMILES: Oc1ccc2ccccc2c1/N=N/c1ccc(/N=N/c2ccccc2)cc1 [Sudan III, reference compound]
amount/size of lipid droplets [3]: no significant effect
TAG in liver (db/db mice; lipidomics): not reduced
other major neutral lipids, cholesteryl ester (ChE) and diglyceride (DG) in liver (db/db mice; lipidomics): not reduced

Source: patent US12582720B2, “Compound for preventing or treating lipid metabolism-related diseases” (Fudan University, priority 2020, dated 2026)
